Common to all, as to experiment: Test Example 1: foliar application pot test, visual growth control rating
Holding throughout (assay type): in vivo
Common to all, as to conditions: 1.25 g/a active ingredient, wettable powder, observed 20 to 31 days after application

The subject of experiment [1] is slender amaranth (Amaranthus viridis). Details: key: 1: the same as in an untreated plot; 10: perfect growth control.
In experiment [2] the test system is cocklebur (Xanthium strumarium). More on the design: key: 1: the same as in an untreated plot; 10: perfect growth control. Summed up: (§1)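 Foliar spray, small spray gun; WP in water at 5 ℓ/a + spreader 0.2 or 0.1 vol%. Stages: morning glory 0.3–1.6 leaf, large crabgrass 1.2–3.0, cotton cotyledon–0.7, cocklebur 0.3–3.4. Visual rating d20–31, 1 (as untreated) to 10 (complete).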

The subject of experiment [3] is morning glory (Ipomoea purpurea). Details: key: 1: the same as in an untreated plot; 10: perfect growth control. Summed up:
as §1

Experiment [4] relates to prickly sida (Sida spinosa). More on the design: key: 1: the same as in an untreated plot; 10: perfect growth control.
The subject of another experiment is rice (Oryza sativa). More on the design: key: 1: the same as in an untreated plot; 10: perfect growth control.
The test system of experiment [5] is large crabgrass (Digitaria adscendens). Details: key: 1: the same as in an untreated plot; 10: perfect growth control. Summed up:
as §1

In experiment [6] the test system is barnyard grass (Echinochloa crus-galli). More on the design: key: 1: the same as in an untreated plot; 10: perfect growth control. Summed up: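 Barnyard grass was grown in upland farming soil in 1/1,500 are pots. Plants at the 1.5- to 3.2-leaf stage received a foliar spray of the wettable powder formulation, diluted with 5 ℓ/a water containing 0.2 or 0.1 vol% spreader. After 20 to 31 days, plants were compared visually with untreated ones and rated from 1 (no effect) to 10 (complete control).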

In a further experiment the test system is corn (Zea mays). More on the design: key: 1: the same as in an untreated plot; 10: perfect growth control.
For a further experiment, the system named is soybean (Glycine max). More on the design: key: 1: the same as in an untreated plot; 10: perfect growth control.
Another experiment relates to cotton (Gossypium). The text has this:
1/1,500 are [are (a) = 100 m²] pots were filled with upland farming soil, which in the pots was then sown with a variety of plants. The plants grown will be enumerated below.
When each plant reached a given growth stage (a 1.2- to 3.0-leaf stage for rice, primary leaf to a 0.7-leaf stage for soybean, 2.1- to 3.6-leaf stage for corn, cotyledon to 0.7-leaf stage for cotton, 2.0- to 3.0-leaf stage for wheat, 0.3- to 3.4-leaf stage for cocklebur, 0.3- to 1.6-leaf stage for morning glory, 0.1- to 1.3-leaf stage for prickly sida, 0.1- to 1.3-leaf stage for slender amaranth, 1.5- to 3.2-leaf stage for barnyard glass, and 1.2- to 3.0-leaf stage for large crabgrass), a predetermined amount of the herbicide of the present invention in the form of a wettable powder, weighed out, diluted with 5 ℓ/a of water and admixed with 0.2 or 0.1 vol%, based on the resulting composition, of an agricultural spreader, was foliarly applied to the plant with a small spray gun. The progress of growth of the plant was visually observed 20 to 31 days after the foliar application to evaluate the degree of growth control according to 10 ratings (1: the same as in an untreated plot - 10: perfect growth control).

On to `CCN(c1cccc(S(=O)(=O)NC(=O)Nc2nc(C)nc(OC)n2)n1)S(=O)(=O)CC(F)(F)F` [compound 79], for which the “degree of growth control, AM” value in [1] stood at 6. Also, the “degree of growth control, XA” value in experiment [2] turned out to be 6. Further, the “degree of growth control, IP” value in experiment [3] was 7. Further, the “degree of growth control, SI” value in experiment [4] is reported as 3. Besides, the “degree of growth control, OR” value with rice (Oryza sativa) worked out at 1. Moreover, in experiment [5], the “degree of growth control, DI” value is given as 3. In addition, the “degree of growth control, EC” value in experiment [6] stood at 1. The “degree of growth control, ZE” value in the experiment on corn (Zea mays) is on record as 1. Besides, in the experiment with soybean (Glycine max), the “degree of growth control, GL” value turned out to be 6. Moreover, the “degree of growth control, GO” value with cotton (Gossypium) is 6.

For the origin of these results see patent EP0562731A1, “Substituted pyridinesulfonamide compounds or their salts, process for preparing the same, and herbicides containing the same” (ISHIHARA SANGYO KAISHA, Ltd., priority 1992, dated 1993).
